Results on 2 compounds are retold here after patent US6852755B1 (priority 1999, dated 2005).

The subject of this test is breast carcinoma xenograft (50% MDA MB361 cells expressing β-galactosidase plus 50% MDA MB361-STCPG2(O)3 cells expressing surface tethered carboxypeptidase G2 …). The arrangement: species or system Nu/Nu BalbC mouse. The following applies: mouse, in vivo.

As to `O=C(O)CC[C@H](NC(=O)c1ccc(N(CCCl)CCCl)c(F)c1)C(=O)O` [B, {3-fluoro-4-[bis(2-chloroethyl)amino]benzoyl}-L-glutamic acid], the “time up to which 50% survival was found post-treatment” value is recorded as “about 70 days”. For the compound `O=C(O)CC[C@H](NC(=O)c1cc(F)c(N(CCI)CCI)c(F)c1)C(=O)O` [Example 1, {3,5-difluoro-4-[bis(2-iodoethyl)amino]benzoyl}-L-glutamic acid], the “time for which a 50% survival rate was provided” value was “over 200 days”.
